Test [1] deals with KPCN349 cells co-cultured with CAFs. In words: Trogocytosis assay in vitro by flow cytometry (CAF membrane uptake by PDAC cells). It is filed as cell-based, murine. As to conditions: 100 nM, CAFs pre-treated 2 hours and maintained in co-culture, vs vehicle, p<0.05. On the procedure:
To label cellular membranes, pairs of lipophilic fluorescent dyes were used according to the manufacturer's instructions in the following combinations: 1) adherent CAFs were stained 1 μM PKH67 (Sigma-Aldrich), Panc-1 were stained in suspension with 10 μM CellTracker™ orange CMTMR (Thermo Fisher Scientific); 2) CAFs labeled with 0.5 μM BODIPY-cholesterol (Topfluor Cholesterol, #DO-016545, Avanti Polar Lipids) dissolved in 0.1 mM methyl-b-cyclodextrin (#C4555, Sigma) with 2 μM cholesterol (#C8667, Sigma-Aldrich) in MEM media at 37° C. for 30 minutes in suspension; murine or human (Panc-1) PDAC cells were stained in suspension with CPD670 (#65-0840-85, Thermo Fisher Scientific). After labeling, CAFs were co-incubated for indicated time intervals with PDAC cells in 12-well culture plates at ratio of 2:1 in half DMEM media. Co-cultures of CAFs and PDAC cells for 3 minutes on ice were used as negative controls. In experiments assessing the effect of extracellular calcium on trogocytoisis, cells were co-cultured in Phosphate Buffered Saline (PBS) containing calcium and magnesium (D8662, Sigma-Aldrich) or in PBS without calcium and magnesium (D8537, Sigma-Aldrich). After co-cultures, cells were collected and pelleted by centrifugation (5 minutes, 1500 rpm), resuspended in 10% formalin (Sigma) for 10 minutes at RT, washed and re-suspended in PBS/1% BSA. Trogocytosis was measured as the acquisition of CAF-specific fluorescence in PDAC cells by flow cytometry on MACSQuant® VYB Flow Cytometer (Miltenyi Biotec) or FACScan analyzer (BD Biosciences). Analysis of dual staining was done using FlowJo software (10.8.1, BD Biosciences). Live cells were gated based on FSC/SSC parameters, then single cells were gated based on SSC-A/SSC-H.
For interference with trogocytosis, CAFs were pre-treated prior to co-cultures for 2 hours with recombinant label-free 100 nM Annexin-V (#ab157342, Abcam) or 100 nM Zn-DPA (Molecular Targeting Technologies) and subsequently maintained in co-cultures at the same concentrations.
For orientation: Flow cytometry measures light scatter and fluorescence of single cells or particles in a stream.

The test system of test [2] is KPC3 syngeneic pancreatic tumor grafts. In words: Treatment of orthotopic syngeneic KPC3 pancreatic tumors with oral ANO6 inhibitors. It is filed as in vivo, C57Bl/6J mice. Conditions: oral gavage 5 days/week for 3 weeks; niclosamide 150 mg/kg, clofazimine 50 mg/kg; vs vehicle, p<0.001. On the procedure:
(§1) Syngeneic 5×10^5 KPC3 cells were orthotopically injected to the tail of pancreas of anesthetized C57Bl/6J mice. Treatment with ANO6 inhibitors niclosamide or clofazimine commenced on 2 days post-implantation: niclosamide (150 mg/kg of mouse body weight, Cayman #10649), clofazimine (50 mg/kg, MedChem Express), or corn oil (50 mg/kg, Sigma #C8267) as vehicle were given by oral gavages 5 days/week for 3 weeks. Mice were kept under defined-flora pathogen-free conditions. Mice of both genders, equally distributed, were used for the experiments.

The subject of another test is DsRed-tagged KPC3 tumors. In words: In vivo fluorescent LDL (BODIPY-cholesterol) imaging by multiphoton microscopy. Set-up: species or system mice. On the procedure:
as §1

Entries after “also recorded” stand apart in the source; their conditions may differ.

For `[Zn].c1ccc(CNCc2ccccn2)nc1` [Zn-DPA, zinc-dipicolylamine], the entries for the “uptake of BODIPY-labeled CAF membranes by KPCN349 cells” value in test [1] and in test [1] (listed as bis-Zn-dipicolylamine) were “significantly reduced the uptake” and “antagonizes uptake”, respectively.

For `CC(C)/N=c1\cc2n(-c3ccc(Cl)cc3)c3ccccc3nc-2cc1Nc1ccc(Cl)cc1` [clofazimine], the “weights of orthotopic syngeneic pancreatic tumors” value in test [2] was “significant reduction of tumor weights”. Take `O=C(Nc1ccc([N+](=O)[O-])cc1Cl)c1cc(Cl)ccc1O` [niclosamide]: in test [2], the “weights of orthotopic syngeneic pancreatic tumors” value is recorded as “significant reduction of tumor weights”. In addition, in the test with DsRed-tagged KPC3 tumors (19 hours post injection, niclosamide vs vehicle), the “accumulation of intratumoral vesicles containing BODIPY-cholesterol” value is reported as “dramatically reduced”. Moreover, the “accumulation of BODIPY-cholesterol from intravenously administered LDL in DsRed-tagged KPC3 cancer cells (intratumoral to peri-tumoral fluorescence)” value in the test with DsRed-tagged KPC3 tumors (niclosamide 150 mg/kg/day, 10, 16 and 19 hours post injection, vehicle tumors showed 6-fold enrichment at 16 hours) is listed as “suppressed accumulation”.

B1: annexin V: recombinant label-free Annexin-V (#ab157342, Abcam) masking cell surface phosphatidylserine (protein, UniProt P08758 2-320, looked up)
Annexin A5: AQVLRGTVTDFPGFDERADAETLRKAMKGLGTDEESILTLLTSRSNAQRQEISAAFKTLFGRDLLDDLKSELTGKFEKLIVALMKPSRLYDAYELKHALKGAGTNEKVLTEIIASRTPEELRAIKQVYEEEYGSSLEDDVVGDTSGYYQRMLVVLLQANRDPDAGIDEAQVEQDAQALFQAGELKWGTDEEKFITIFGTRSVSHLRKVFDKYMTISGFQIEETIDRETSGNLEQLLLAVVKSIRSIPAYLAETLYYAMKGAGTDDHTLIRVMVSRSEIDLFNIRKEFRKNFATSLYSMIKGDTSGDYKKALLLLCGEDD
For B1, the “uptake of BODIPY-labeled CAF membranes by KPCN349 cells” value in test [1] is recorded as “significantly reduced the uptake; also recorded: antagonizes uptake”.

The values above are taken from patent US20240122922A1, “Methods Of Treating Cancer With Transmembrane Protein 16F (TMEM16F) Inhibitors” (Institute For Cancer Research d/b/a The Research Institute …, priority 2022, published 2024).
